Source: PubChem BioAssay AID2060499 (Molecular Pharmacology Branch, DTP, NCI, 2025)

System: 777334-354-R2-J4-PDC tumor spheroids with HUVEC/MSC, viability
Test: Anticancer human tumor 777334-354-R2-J4-PDC patient-derived pancreatic adenocarcinoma cell line growth inhibition [GQUAD]
Settings: for IC50: curve of first compound; for viability, T/C: stronger effect = lower value
Method in brief: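 Multi-cell-type spheroids of tumor cells with HUVEC and mesenchymal stem cells, treated with drug combinations. Concentrations descend in half-log steps from near clinical Cmax, or from 10 microM where Cmax is unknown; viability read-out.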

[1] = second compound 0.0316 µM, first compound 0.0316 µM
[2] = second compound 0.0316 µM, first compound 0.1 µM
[3] = second compound 0.0316 µM, first compound 0.316 µM
[4] = second compound 0.0316 µM, first compound 1 µM
[5] = second compound 0.0316 µM, first compound 3.16 µM
[6] = second compound 0.0316 µM, first compound 10 µM
[7] = second compound 0.1 µM, first compound 0.0316 µM
[8] = second compound 0.1 µM, first compound 0.1 µM
[9] = second compound 0.1 µM, first compound 0.316 µM
[10] = second compound 0.1 µM, first compound 1 µM
[11] = second compound 0.1 µM, first compound 3.16 µM
[12] = second compound 0.1 µM, first compound 10 µM
[13] = second compound 0.316 µM, first compound 0.0316 µM
[14] = second compound 0.316 µM, first compound 0.1 µM
[15] = second compound 0.316 µM, first compound 0.316 µM
[16] = second compound 0.316 µM, first compound 1 µM
[17] = second compound 0.316 µM, first compound 3.16 µM
[18] = second compound 0.316 µM, first compound 10 µM
[19] = second compound 1 µM, first compound 0.0316 µM
[20] = second compound 1 µM, first compound 0.1 µM
[21] = second compound 1 µM, first compound 0.316 µM
[22] = second compound 1 µM, first compound 1 µM
[23] = second compound 1 µM, first compound 3.16 µM
[24] = second compound 1 µM, first compound 10 µM
[25] = second compound 3.16 µM, first compound 0.0316 µM
[26] = second compound 3.16 µM, first compound 0.1 µM
[27] = second compound 3.16 µM, first compound 0.316 µM
[28] = second compound 3.16 µM, first compound 1 µM
[29] = second compound 3.16 µM, first compound 3.16 µM
[30] = second compound 3.16 µM, first compound 10 µM
[31] = second compound 10 µM, first compound 0.0316 µM
[32] = second compound 10 µM, first compound 0.1 µM
[33] = second compound 10 µM, first compound 0.316 µM
[34] = second compound 10 µM, first compound 1 µM
[35] = second compound 10 µM, first compound 3.16 µM
[36] = second compound 10 µM, first compound 10 µM
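Further: spheroids exposed to compounds for 7 days before readout.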

C#Cc1c(F)ccc2cc(O)cc(-c3ncc4c(N5CC6CCC(C5)N6)nc(OCC56CCCN5CC(F)C6)nc4c3F)c12 (stereo unspecified) + CN(C)c1ccc(Nc2c3ccc(NC(=O)CCN4CCCC4)cc3nc3cc(NC(=O)CCN4CCCC4)ccc23)cc1
IC50 (second compound 0.0316 µM): 33.7 nM | IC50 (second compound 0.1 µM): 36.1 nM | IC50 (second compound 0.316 µM): < 31.6 nM | IC50 (second compound 1 µM): < 31.6 nM | IC50 (second compound 3.16 µM): < 31.6 nM | IC50 (second compound 10 µM): < 31.6 nM | viability, T/C [1]: 51% | viability, T/C [2]: 38.9% | viability, T/C [3]: 29.8% | viability, T/C [4]: 31.2% | viability, T/C [5]: 30.1% | viability, T/C [6]: 22.6% | viability, T/C [7]: 52.3% | viability, T/C [8]: 38.7% | viability, T/C [9]: 34.3% | viability, T/C [10]: 28.4% | viability, T/C [11]: 29.1% | viability, T/C [12]: 21.5% | viability, T/C [13]: 46.9% | viability, T/C [14]: 35% | viability, T/C [15]: 36% | viability, T/C [16]: 29% | viability, T/C [17]: 26.5% | viability, T/C [18]: 22.4% | viability, T/C [19]: 37.1% | viability, T/C [20]: 38% | viability, T/C [21]: 31.4% | viability, T/C [22]: 27.8% | viability, T/C [23]: 25.4% | viability, T/C [24]: 23.7% | viability, T/C [25]: 38.6% | viability, T/C [26]: 34.4% | viability, T/C [27]: 32% | viability, T/C [28]: 24.2% | viability, T/C [29]: 22.6% | viability, T/C [30]: 17.8% | viability, T/C [31]: 36.3% | viability, T/C [32]: 32.3% | viability, T/C [33]: 27.5% | viability, T/C [34]: 19.6% | viability, T/C [35]: 15.2% | viability, T/C [36]: 10.3%

C=CCn1c(=O)c2cnc(Nc3ccc(N4CCN(C)CC4)cc3)nc2n1-c1cccc(C(C)(C)O)n1 + CN(C)c1ccc(Nc2c3ccc(NC(=O)CCN4CCCC4)cc3nc3cc(NC(=O)CCN4CCCC4)ccc23)cc1
IC50 (second compound 0.0316 µM): 746 nM | IC50 (second compound 0.1 µM): 907 nM | IC50 (second compound 0.316 µM): 961 nM | IC50 (second compound 1 µM): 793 nM | IC50 (second compound 3.16 µM): 732 nM | IC50 (second compound 10 µM): 576 nM | viability, T/C [1]: 101% | viability, T/C [2]: 94.8% | viability, T/C [3]: 81.6% | viability, T/C [4]: 38.8% | viability, T/C [5]: 36.5% | viability, T/C [6]: 37.6% | viability, T/C [7]: 103% | viability, T/C [8]: 91.1% | viability, T/C [9]: 84.6% | viability, T/C [10]: 46.1% | viability, T/C [11]: 36.8% | viability, T/C [12]: 35.9% | viability, T/C [13]: 105% | viability, T/C [14]: 89.8% | viability, T/C [15]: 77.2% | viability, T/C [16]: 45.9% | viability, T/C [17]: 38.4% | viability, T/C [18]: 33.9% | viability, T/C [19]: 87% | viability, T/C [20]: 82.5% | viability, T/C [21]: 78% | viability, T/C [22]: 42.8% | viability, T/C [23]: 38.9% | viability, T/C [24]: 35.2% | viability, T/C [25]: 92.9% | viability, T/C [26]: 81.4% | viability, T/C [27]: 68% | viability, T/C [28]: 41% | viability, T/C [29]: 39.2% | viability, T/C [30]: 33.2% | viability, T/C [31]: 90.1% | viability, T/C [32]: 81.7% | viability, T/C [33]: 59.3% | viability, T/C [34]: 39.8% | viability, T/C [35]: 34.1% | viability, T/C [36]: 25.1%

CC(C)(O)C1CCC(Nc2ccc3ncc(-c4cccc(C(F)(F)F)c4)n3n2)CC1 (stereo unspecified) + CN(C)c1ccc(Nc2c3ccc(NC(=O)CCN4CCCC4)cc3nc3cc(NC(=O)CCN4CCCC4)ccc23)cc1
IC50 (second compound 0.0316 µM): 849 nM | IC50 (second compound 0.1 µM): 921 nM | IC50 (second compound 0.316 µM): 1340 nM | IC50 (second compound 1 µM): 1340 nM | IC50 (second compound 3.16 µM): 1060 nM | IC50 (second compound 10 µM): 669 nM | viability, T/C [1]: 99.9% | viability, T/C [2]: 90.2% | viability, T/C [3]: 90.2% | viability, T/C [4]: 43.4% | viability, T/C [5]: 32.3% | viability, T/C [6]: 35.5% | viability, T/C [7]: 98.2% | viability, T/C [8]: 86.5% | viability, T/C [9]: 81.4% | viability, T/C [10]: 47.4% | viability, T/C [11]: 31.3% | viability, T/C [12]: 31.5% | viability, T/C [13]: 89% | viability, T/C [14]: 68.1% | viability, T/C [15]: 79.7% | viability, T/C [16]: 55% | viability, T/C [17]: 36.6% | viability, T/C [18]: 33.9% | viability, T/C [19]: 78.9% | viability, T/C [20]: 89.9% | viability, T/C [21]: 81.4% | viability, T/C [22]: 56.3% | viability, T/C [23]: 29.6% | viability, T/C [24]: 33.3% | viability, T/C [25]: 76.8% | viability, T/C [26]: 82.3% | viability, T/C [27]: 80.5% | viability, T/C [28]: 51.2% | viability, T/C [29]: 27.9% | viability, T/C [30]: 27% | viability, T/C [31]: 83.9% | viability, T/C [32]: 77.2% | viability, T/C [33]: 67.8% | viability, T/C [34]: 41.6% | viability, T/C [35]: 19.1% | viability, T/C [36]: 19.4%
